Compound in experiment [1]: COc1cc2ncnc(Nc3ccc(F)c(Cl)c3)c2cc1OCCCN1CCOCC1 [GEFITINIB]
Nature of the experiment: surviving fraction relative to DMSO-only wells; higher = less growth inhibition. The settings on record: exposure time: 5 days. Summed up: (§1)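 Log-phase tumour cell lines were seeded at 250–500 cells per well in 384-well plates. After 24 hours they were exposed continuously for five days to inhibitors at 0.5, 1, 5, 10, 50, 100, 500 and 1000 nM. Viability was read by CellTiter-Glo luminescence after 10 minutes at room temperature, and surviving fraction is luminescence normalised to the median of DMSO-only wells. Each line was screened three times and kept only if replicate Pearson r >0.7 and median Z' >0.3.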

Compound in experiment [2]: CC(=O)c1c(C)c2cnc(Nc3ccc(N4CCNCC4)cn3)nc2n(C2CCCC2)c1=O
The description is as above. To be noted: exposure time: 5 days. Summed up: as §1

± gives the standard deviation of the averaged measurements.

With HCC1806 BREAST, the surviving fraction in experiment [1] (0.5 nM) was 1.02 ± 0.11; in experiment [1] (1 nM), 1.08 ± 0.11; in experiment [1] (5 nM), 1.19 ± 0.1; in experiment [1] (10 nM), 1.2 ± 0.11; in experiment [1] (50 nM) it was 1.04 ± 0.14; in experiment [1] (100 nM), 0.925 ± 0.098. Also, the surviving fraction in experiment [1] (500 nM) is 0.62 ± 0.069; in experiment [1] (1000 nM) it was 0.61 ± 0.01; in experiment [2] (0.5 nM), 0.984 ± 0.095; in experiment [2] (1 nM), 0.999 ± 0.085; in experiment [2] (5 nM), 1.05 ± 0.046; in experiment [2] (10 nM) it was 1.08 ± 0.17. Moreover, the surviving fraction stood at 1.12 ± 0.1 in experiment [2] (50 nM), 1.09 ± 0.024 in experiment [2] (100 nM), 0.941 ± 0.17 in experiment [2] (500 nM) and 0.95 ± 0.072 in experiment [2] (1000 nM).

For SCC003 HEADNECK, the surviving fraction amounted to 1.02 ± 0.057 in experiment [1] (0.5 nM); 1.01 ± 0.056 in experiment [1] (1 nM); 1.1 ± 0.027 in experiment [1] (5 nM); 0.995 ± 0.11 in experiment [1] (10 nM); 0.945 ± 0.026 in experiment [1] (50 nM); 0.857 ± 0.035 in experiment [1] (100 nM). For the same test system, the surviving fraction is 0.54 ± 0.043 in experiment [1] (500 nM); 0.47 ± 0.029 in experiment [1] (1000 nM); 1.12 ± 0.06 in experiment [2] (0.5 nM); 1.02 ± 0.064 in experiment [2] (1 nM); 1.11 ± 0.036 in experiment [2] (5 nM); 1.08 ± 0.086 in experiment [2] (10 nM). Further, the surviving fraction in experiment [2] (50 nM) came to 1.13 ± 0.14; in experiment [2] (100 nM), 1.08 ± 0.076; in experiment [2] (500 nM), 1.06 ± 0.081; in experiment [2] (1000 nM), 0.884 ± 0.084.

For HT1080 SOFT TISSUE, the surviving fraction worked out at 1.05 ± 0.016 in experiment [1] (0.5 nM); 1.05 ± 0.035 in experiment [1] (1 nM); 1.05 ± 0.069 in experiment [1] (5 nM); 1.11 ± 0.036 in experiment [1] (10 nM); 1.01 ± 0.029 in experiment [1] (50 nM); 1.03 ± 0.028 in experiment [1] (100 nM). Moreover, the surviving fraction in experiment [1] (500 nM) was 1.042 ± 0.0056; in experiment [1] (1000 nM), 1.01 ± 0.034; in experiment [2] (0.5 nM), 0.997 ± 0.026; in experiment [2] (1 nM), 1.04 ± 0.017; in experiment [2] (5 nM), 1.05 ± 0.017; in experiment [2] (10 nM) it was 1.03 ± 0.019. Besides, the surviving fraction in experiment [2] (50 nM) was 1.022 ± 0.0036; in experiment [2] (100 nM), 1 ± 0.041; in experiment [2] (500 nM) it was 0.9707 ± 0.0071; in experiment [2] (1000 nM) it was 0.958 ± 0.024.

With NY BONE, the surviving fraction in experiment [1] (0.5 nM) was 0.999 ± 0.032; in experiment [1] (1 nM) it was 1 ± 0.035; in experiment [1] (5 nM), 1.09 ± 0.036; in experiment [1] (10 nM), 1.06 ± 0.031; in experiment [1] (50 nM), 1.07 ± 0.026; in experiment [1] (100 nM) it was 1.14 ± 0.016. Besides, the surviving fraction was 0.998 ± 0.019 in experiment [1] (500 nM); 0.969 ± 0.032 in experiment [1] (1000 nM); 1.02 ± 0.024 in experiment [2] (0.5 nM); 1.03 ± 0.065 in experiment [2] (1 nM); 1.05 ± 0.057 in experiment [2] (5 nM); 1.04 ± 0.018 in experiment [2] (10 nM). Besides, the surviving fraction in experiment [2] (50 nM) is 1.12 ± 0.023; in experiment [2] (100 nM) it was 1.06 ± 0.043; in experiment [2] (500 nM), 1.04 ± 0.049; in experiment [2] (1000 nM), 1.02 ± 0.068.

As to SG28 HEADNECK, the surviving fraction in experiment [1] (0.5 nM) was 1.14 ± 0.071; in experiment [1] (1 nM), 1.2 ± 0.037; in experiment [1] (5 nM), 1.06 ± 0.075; in experiment [1] (10 nM), 1.03 ± 0.035; in experiment [1] (50 nM), 0.758 ± 0.069; in experiment [1] (100 nM) it was 0.679 ± 0.033. In addition, the surviving fraction in experiment [1] (500 nM) was determined as 0.501 ± 0.059; in experiment [1] (1000 nM), 0.504 ± 0.016; in experiment [2] (0.5 nM) it was 1.1 ± 0.069; in experiment [2] (1 nM) it was 1.1 ± 0.13; in experiment [2] (5 nM), 1.08 ± 0.15; in experiment [2] (10 nM), 0.955 ± 0.05. Moreover, the surviving fraction was determined as 1.02 ± 0.16 in experiment [2] (50 nM), 1.02 ± 0.13 in experiment [2] (100 nM), 1 ± 0.058 in experiment [2] (500 nM) and 1.07 ± 0.051 in experiment [2] (1000 nM).

As to HMLE3 BREAST, the surviving fraction in experiment [1] (0.5 nM) is 1.11 ± 0.075; in experiment [1] (1 nM) it was 1.03 ± 0.016; in experiment [1] (5 nM), 1.07 ± 0.016; in experiment [1] (10 nM) it was 1.08 ± 0.031; in experiment [1] (50 nM) it was 1.04 ± 0.051; in experiment [1] (100 nM) it was 0.963 ± 0.07. Besides, the surviving fraction in experiment [1] (500 nM) stood at 0.904 ± 0.1; in experiment [1] (1000 nM), 0.843 ± 0.083; in experiment [2] (0.5 nM) it was 1.05 ± 0.084; in experiment [2] (1 nM), 1.08 ± 0.081; in experiment [2] (5 nM), 1.05 ± 0.026; in experiment [2] (10 nM) it was 1.03 ± 0.043. The surviving fraction in experiment [2] (50 nM) amounted to 1.1 ± 0.099; in experiment [2] (100 nM) it was 0.962 ± 0.086; in experiment [2] (500 nM), 0.925 ± 0.12; in experiment [2] (1000 nM), 0.933 ± 0.066.

On to KPD BONE, for which the surviving fraction in experiment [1] (0.5 nM) came to 0.994 ± 0.06; in experiment [1] (1 nM) it was 1.01 ± 0.04; in experiment [1] (5 nM), 0.84 ± 0.36; in experiment [1] (10 nM) it was 0.81 ± 0.34; in experiment [1] (50 nM) it was 1.06 ± 0.1; in experiment [1] (100 nM), 1.04 ± 0.076. In addition, the surviving fraction was determined as 0.952 ± 0.04 in experiment [1] (500 nM); 0.934 ± 0.029 in experiment [1] (1000 nM); 0.924 ± 0.081 in experiment [2] (0.5 nM); 0.939 ± 0.029 in experiment [2] (1 nM); 1.04 ± 0.05 in experiment [2] (5 nM); 0.961 ± 0.027 in experiment [2] (10 nM). Besides, the surviving fraction in experiment [2] (50 nM) worked out at 0.99 ± 0.069; in experiment [2] (100 nM), 0.993 ± 0.072; in experiment [2] (500 nM), 0.775 ± 0.026; in experiment [2] (1000 nM), 0.679 ± 0.041.

The values are drawn from the supplement of paper PMC6045584.
